From article PMC10166855, “Tau activation of microglial cGAS–IFN reduces MEF2C-mediated cognitive resilience” (Nature neuroscience, 2023) come the findings set out here.

The target in the assay is human cGAS (cyclic GMP–AMP synthase) (Homo sapiens, UniProt Q8N884). Briefly: cell-free cGAS activity assay, ATP depletion by Kinase-Glo luminescence. The format is biochemical. From the text:
cell-free cGAS activity assay, ATP depletion by Kinase-Glo luminescence on human cGAS (cyclic GMP–AMP synthase) | Dose-dependent inhibition of cGAS activity (as measured in a) in response to HT-DNA.

human cGAS (cyclic GMP–AMP synthase), sequence (Q8N884 whole entry): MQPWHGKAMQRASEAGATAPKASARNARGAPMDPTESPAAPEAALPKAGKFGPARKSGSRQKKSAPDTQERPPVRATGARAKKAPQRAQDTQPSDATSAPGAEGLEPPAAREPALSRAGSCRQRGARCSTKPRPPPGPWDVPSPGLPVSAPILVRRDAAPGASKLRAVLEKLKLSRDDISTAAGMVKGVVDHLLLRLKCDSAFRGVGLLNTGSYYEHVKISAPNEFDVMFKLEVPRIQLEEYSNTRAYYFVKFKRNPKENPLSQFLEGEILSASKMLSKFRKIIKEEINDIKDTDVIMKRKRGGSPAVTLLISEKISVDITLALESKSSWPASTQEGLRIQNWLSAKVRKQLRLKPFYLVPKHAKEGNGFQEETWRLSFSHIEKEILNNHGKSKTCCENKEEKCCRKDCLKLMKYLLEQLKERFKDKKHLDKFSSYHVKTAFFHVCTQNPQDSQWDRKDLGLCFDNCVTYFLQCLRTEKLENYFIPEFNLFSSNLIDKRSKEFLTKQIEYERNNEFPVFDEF

Regarding TDI-8246, the IC50 was determined as 81.2 nM.

The IC50 is the midpoint of a concentration-inhibition curve. Lower therefore signals higher potency.
